In ChEMBL document CHEMBL5532651, “HDAC specificity and kinase off-targeting by purine-benzohydroxamate anti-hematological tumor agents” (Eur J Med Chem, 2024):
The source made the active and inactive calls. No cut-off for these calls is given here.

Legend:
[1] = Selectivity index, ratio of IC50 for human HCT-116 cells to IC50 for human Jurkat cells; assay type: functional
[2] = Selectivity index, ratio of IC50 for human MCF7 cells to IC50 for human Jurkat cells; assay type: functional
[3] = Selectivity index, ratio of IC50 for human HCT-116 cells to IC50 for human NAMALVA cells; assay type: functional
[4] = Selectivity index, ratio of IC50 for human HS5 cells to IC50 for human Jurkat cells; assay type: functional
[5] = Selectivity index, ratio of IC50 for human HS5 cells to IC50 for human NAMALVA cells; assay type: functional
Jurkat [6] = experiment: Potency index, ratio of Vorinostat IC50 to test compound IC50 for human Jurkat cells assessed as cell growth inhibition incubated for 24 to 72 hrs by MTT assay; assay type: functional; conditions: time 24-72 hrs
NAMALVA [7] = experiment: Potency index, ratio of Vorinostat IC50 to test compound IC50 for human NAMALVA cells assessed as cell growth inhibition incubated for 24 to 72 hrs by MTT assay; assay type: functional; conditions: time 24-72 hrs
Jurkat [8] = experiment: Inhibition of cell proliferation of human Jurkat cells assessed as reduction in Ki-67 expression at IC50 measured after 48 hrs by flow cytometry; assay type: functional, cell-based
[9] = biological target: T1, Protein deacetylase HDAC6 (Homo sapiens, UniProt Q9UBN7); experiment: Inhibition of full-length recombinant human HDAC6 expressed in baculovirus infected Sf9 cells using RHKK(Ac)AMC as substrate preincubated for 5 to 10 mins followed by substrate addition measured after 2 hrs by fluorescence based assay
T1 sequence (Q9UBN7 whole entry): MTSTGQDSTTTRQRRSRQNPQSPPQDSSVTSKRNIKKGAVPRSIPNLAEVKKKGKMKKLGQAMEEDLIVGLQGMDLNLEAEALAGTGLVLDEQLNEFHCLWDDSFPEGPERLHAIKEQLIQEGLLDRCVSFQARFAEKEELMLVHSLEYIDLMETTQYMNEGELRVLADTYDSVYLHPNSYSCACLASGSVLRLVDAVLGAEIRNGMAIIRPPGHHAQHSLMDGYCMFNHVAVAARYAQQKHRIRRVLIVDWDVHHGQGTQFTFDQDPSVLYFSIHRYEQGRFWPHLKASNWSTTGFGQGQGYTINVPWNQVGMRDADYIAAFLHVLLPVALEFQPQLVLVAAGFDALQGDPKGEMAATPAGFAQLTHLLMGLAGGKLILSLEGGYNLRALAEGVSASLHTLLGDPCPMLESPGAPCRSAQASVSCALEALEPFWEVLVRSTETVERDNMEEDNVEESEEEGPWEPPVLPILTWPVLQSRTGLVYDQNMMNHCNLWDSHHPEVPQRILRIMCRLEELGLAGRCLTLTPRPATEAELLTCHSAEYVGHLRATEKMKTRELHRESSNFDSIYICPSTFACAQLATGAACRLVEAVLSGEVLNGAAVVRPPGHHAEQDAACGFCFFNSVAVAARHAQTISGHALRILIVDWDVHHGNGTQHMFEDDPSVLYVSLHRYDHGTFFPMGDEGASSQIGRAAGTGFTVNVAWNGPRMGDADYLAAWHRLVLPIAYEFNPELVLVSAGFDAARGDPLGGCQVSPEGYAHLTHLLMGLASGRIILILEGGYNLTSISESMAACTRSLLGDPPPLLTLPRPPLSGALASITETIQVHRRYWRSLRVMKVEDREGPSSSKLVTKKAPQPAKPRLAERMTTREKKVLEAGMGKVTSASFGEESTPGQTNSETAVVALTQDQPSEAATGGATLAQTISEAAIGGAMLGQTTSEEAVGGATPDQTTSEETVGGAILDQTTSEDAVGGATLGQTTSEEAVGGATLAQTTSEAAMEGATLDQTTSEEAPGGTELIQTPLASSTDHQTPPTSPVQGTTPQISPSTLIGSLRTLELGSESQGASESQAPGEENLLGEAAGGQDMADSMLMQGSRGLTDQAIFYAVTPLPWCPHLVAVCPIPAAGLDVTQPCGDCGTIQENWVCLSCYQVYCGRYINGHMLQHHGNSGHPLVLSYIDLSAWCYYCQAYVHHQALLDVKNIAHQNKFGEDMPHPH

Histone deacetylase 1 [10] = biological target: T2, Histone deacetylase 1 (Homo sapiens, UniProt Q13547); experiment: Inhibition of HDAC1 in human NAMALVA cells assessed as increase in acetyl-histone H3 level at IC50 incubated for 48 hrs by Western blot analysis; assay type: cell-based
T2 sequence (Q13547 whole entry): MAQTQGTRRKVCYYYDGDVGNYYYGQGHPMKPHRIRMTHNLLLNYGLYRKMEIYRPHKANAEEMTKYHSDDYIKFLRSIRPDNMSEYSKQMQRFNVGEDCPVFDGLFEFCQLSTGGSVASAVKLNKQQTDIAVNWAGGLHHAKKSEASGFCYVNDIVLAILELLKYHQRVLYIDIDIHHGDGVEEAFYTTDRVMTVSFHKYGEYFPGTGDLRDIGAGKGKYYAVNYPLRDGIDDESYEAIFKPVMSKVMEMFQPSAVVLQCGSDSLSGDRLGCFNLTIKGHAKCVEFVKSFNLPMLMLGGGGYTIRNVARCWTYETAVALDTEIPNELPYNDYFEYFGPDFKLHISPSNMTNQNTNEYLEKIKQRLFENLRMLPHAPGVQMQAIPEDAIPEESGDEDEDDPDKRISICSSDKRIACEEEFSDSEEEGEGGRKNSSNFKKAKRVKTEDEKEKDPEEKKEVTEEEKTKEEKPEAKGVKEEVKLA

Histone deacetylase 1 [11] = biological target: T2, Histone deacetylase 1; experiment: Inhibition of HDAC1 in human U-937 cells assessed as increase in acetyl-histone H3 level at IC50 incubated for 48 hrs by Western blot analysis; assay type: cell-based
Histone deacetylase 1 [12] = biological target: T2, Histone deacetylase 1; experiment: Inhibition of HDAC1 in human Jurkat cells assessed as increase in acetyl-alpha-tubulin level at IC50 incubated for 48 hrs by Western blot analysis; assay type: cell-based
[13] = biological target: T3, Protein deacetylase HDAC6 (Homo sapiens) (UniProt Q9UBN7); experiment: Inhibition of HDAC6 in human NAMALVA cells assessed as increase in acetyl-histone H3 level at IC50 incubated for 48 hrs by Western blot analysis; assay type: cell-based
T3 sequence (whole entry): T1 sequence (Q9UBN7 whole entry)

[14] = biological target: T3, Protein deacetylase HDAC6 (Homo sapiens); experiment: Inhibition of HDAC6 in human Jurkat cells assessed as increase in acetyl-alpha-tubulin level at IC50 incubated for 48 hrs by Western blot analysis; assay type: cell-based
CYP1A2 = biological target: T4, CYP1A2 (Homo sapiens, UniProt P05177); experiment: Inhibition of CYP1A2 in liver microsomes (unknown origin) at 10 uM incubated for 10 mins relative to control; assay type: ADME, Microsome
T4 sequence (P05177 whole entry): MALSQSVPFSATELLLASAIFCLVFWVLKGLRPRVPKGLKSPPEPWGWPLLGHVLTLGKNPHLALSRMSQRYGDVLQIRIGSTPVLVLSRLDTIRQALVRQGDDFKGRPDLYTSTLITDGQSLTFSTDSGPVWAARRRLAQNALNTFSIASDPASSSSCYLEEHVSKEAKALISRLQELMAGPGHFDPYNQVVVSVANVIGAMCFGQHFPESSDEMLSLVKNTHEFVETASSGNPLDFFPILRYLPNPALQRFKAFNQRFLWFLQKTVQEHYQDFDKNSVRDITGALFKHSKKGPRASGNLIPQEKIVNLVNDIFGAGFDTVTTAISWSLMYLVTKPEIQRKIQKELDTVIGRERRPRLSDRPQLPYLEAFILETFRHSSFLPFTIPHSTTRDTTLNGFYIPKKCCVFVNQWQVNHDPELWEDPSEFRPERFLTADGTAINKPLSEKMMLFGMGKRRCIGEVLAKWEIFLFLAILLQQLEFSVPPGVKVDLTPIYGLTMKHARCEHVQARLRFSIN

[15] = Stability in mouse liver microsome assessed as half life at 1 uM measured for 60 mins by LC-MS/MS analysis; assay type: ADME; conditions: liver microsomes
[16] = Stability in human liver microsome assessed as intrinsic clearance at 1 uM measured for 60 mins by LC-MS/MS analysis; assay type: ADME; conditions: liver microsomes, read-out: CLH
HCT-116 = experiment: cells; conditions: Homo sapiens
Jurkat [17] = experiment: cells; conditions: Homo sapiens
NAMALVA [18] = experiment: cells; conditions: Homo sapiens

Row | IC50 [9] [nM] | inhibition (Histone deacetylase 1 [10]) | inhibition (Histone deacetylase 1 [11]) | inhibition (Histone deacetylase 1 [12]) | inhibition [13] | inhibition [14] | inhibition at 10 min, 10 µM (CYP1A2) [%] | half-life at 1 µM [15] [min] | microsomal CLint at 1 µM [16] [µL/min/mg] | IC50 (HCT-116) [nM] | IC50 (Jurkat [17]) [nM] | IC50 (NAMALVA [18]) [nM] | SMILES | Ratio IC50 [1] | Ratio IC50 [2] | Ratio IC50 [3] | Ratio IC50 [4] | Ratio IC50 [5] | Ratio IC50 (Jurkat [6]) | Ratio IC50 (NAMALVA [7]) | inhibition (Jurkat [8])
1 | 232 | Active | Active | Active | Active | Active | 50 | 50 | < 6 | 8300 | 50 | 100 | COc1ccc(Nc2ncnc3c2ncn3Cc2ccc(C(=O)NO)cc2)cc1 | 83 | 83 | 83 | >=100 | >=100 | <=10 | <=10 | Active
2 | 341 | Active | Active | Active | Active | Active | 46 | 35 | < 6 | 9300 | 20 | 40 | O=C(NO)c1ccc(Cn2cnc3c(Nc4ccc(F)c(Cl)c4)ncnc32)cc1 | 83 | 83 | 83 | >=100 | >=100 | <=10 | <=10 | Active
